{"source": "patent US8354407B2", "about": "(Boehringer Ingelheim International GmbH, priority 2006, dated 2013)", "biological_target": "T1, full-length human PKCα enzyme (Homo sapiens, UniProt P17252)", "T1 construct": "full-length human PKCα enzyme; purchased Upstate Biotechnology", "test": "Assessment of PKC-α Inhibitory Activity (MALDI-TOF kinase assay)", "type": "biochemical", "details": "full-length human PKCα 0.12 μg/ml; ATP 45 μM; neurogranin 28-43 peptide 22 μM; 30 minute incubation at 24° C.; MALDI-TOF MS readout", "protocol": "Measurement of PKCα enzyme activity is performed using full-length human PKCα enzyme (Upstate Biotechnology) at a final concentration of 0.12 μg/ml in a kinase assay buffer (0.09 mg/ml bovine serum albumin (BSA), 210 μM ethylenediaminetetraacetic acid (EDTA), 360 μM CaCl2, 1 mM Tris-HCl, pH=7.5, 0.5 mM MgCl2, 0.015 mg/ml phosphatidylserine and 0.015 mg/ml diacylglycerol). The reaction is initiated by addition of adenosine triphosphate (ATP; final concentration 45 μM) and a peptide substrate consisting of amino acids 28-43 (Ala-Ala-Lys-Ile-Gln-Ala-Ser-Phe-Arg-Gly-His-Met-Ala-Arg-Lys-Lys) of neurogranin (Promega; final concentration 22 μM). After a 30 minute incubation at 24° C. the reaction is terminated by adding 5 μL of the reaction mixture into 50 μL of MALDI matrix solution (5 mg/ml α-cyano-4-hydroxycinnamic acid in 50% Acetonitrile/H2O, 0.1% TFA, 5 mM ammonium phosphate). Two microliters of the stopped reaction mixture is transferred onto a MALDI-TOF mass spectrometer target plate.\nAll spectra are collected on an Applied Biosystems 4700 Proteomics Analyzer MALDI-TOF MS equipped with a Nd:YAG laser (355 nm, 3 ns pulse width, 200 Hz repetition rate) in negative ion reflector mode. The system is operated with 4700 Explorer software, version 3.0. Automated acquisition parameters are adjusted to capture and average only those individual spectra within defined success criteria. Specifically, signal intensities for the substrate peptide are set to a minimum threshold of 3000 counts and a maximum intensity of 65,000 counts. This ensured that neither null spectra nor saturated spectra are averaged into the final readout. Between 1000 and 1500 laser shots are averaged for each sample. Data are collected in triplicate from 3 successive days to capture the maximum variability related to preparation of enzyme reaction, transfer of samples to MALDI target plates, data collection, and data extraction.\nThe isotope cluster areas for each peptide substrate and product peaks are extracted into a Microsoft Excel worksheet from the 10×10 array of spectral data simultaneously using the automated analysis function provided within the 4700 Explore software. The isotope cluster area is defined by the software algorithm based on the molecular weight and the general elemental composition of the peptides. The percent conversion (% C) of substrate to product is calculated as the cluster area of the product (P) divided by the sum of the cluster areas of the substrate (S) and the product multiplied by 100 as represented by the following equation: […]\nFor dose-dependent inhibition studies, the inhibition is plotted as a % Maximal Activity (% MA). Equation one is a measure of the ratio of product to substrate then solving for the % C. However, to measure inhibition of the enzyme activity, one must measure the degree to which that activity (% C) is curtailed. Thus the dose-dependant inhibition data is plotted as % MA where the maximal activity is the % C measured in control reactions with no inhibitor as represented by the following equation: […]", "data": [{"substance": "N^2-(3-Nitro-biphenyl-3-yl)-N^4-(3-morpholin-4-yl-propyl)-pyrimidine-2,4-diamine", "values": [{"measurement": "IC50", "result": 182, "unit": "nM"}]}]}
